According to ChEMBL document CHEMBL1201862, “PubChem BioAssay data set” (2004):
Calls of active or inactive are those of the source.

Columns and labels:
Prothrombin = Prothrombin (Homo sapiens, UniProt P00734); assay: Thrombin 1536 HTS Dose Response Confirmation. [Related pubchem assays: 1046 (Thrombin 1536 HTS; hits were confirmed in this assay)]; type: functional
[1] = molecular target: T1, Calpain-2 catalytic subunit (Sus scrofa, UniProt P43367); assay: pig calpain II inhibitor potency, dose response, biochemical, fluorogenic peptide substrate (AID 1420); type: functional
T1 sequence (P43367 whole entry): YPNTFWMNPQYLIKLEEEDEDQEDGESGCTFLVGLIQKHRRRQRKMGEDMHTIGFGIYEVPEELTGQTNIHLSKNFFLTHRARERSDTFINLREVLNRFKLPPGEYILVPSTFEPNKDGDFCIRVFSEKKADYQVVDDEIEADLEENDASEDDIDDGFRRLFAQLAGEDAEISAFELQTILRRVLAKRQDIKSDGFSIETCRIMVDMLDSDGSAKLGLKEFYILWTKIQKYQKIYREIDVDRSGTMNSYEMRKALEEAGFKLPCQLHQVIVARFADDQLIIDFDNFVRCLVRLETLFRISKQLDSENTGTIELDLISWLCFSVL

[2] = inhibitors of clade B AD8 Env fusion, dose response, cell-based, cherry-pick (AID 652062); type: functional;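 also: luciferase signal from cell-cell fusion driven by HIV-1 clade B AD8 Env; potency is for inhibitors of fusion seen as a drop in luminescence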
[3] = off-target signal loss in HeLa-CEM21 co-culture – HeLa F-luc CTL cells, cherry-picked, counter-screen for HIV-1 Env fusion inhibitor project, dose response (AID 652040); type: functional, cell-based;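 also: potency for signal decrease marking cytotoxic or nonspecific inhibition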
[4] = inhibitors of HIV Env-driven cell fusion, dose response, cherry-pick (AID 652057); type: functional, cell-based
[5] = ZM109 Env clade C HIV-1 fusion inhibitors, dose response, HeLa effector, CEM target cells, luciferase, cherry-pick (AID 652058); type: functional, cell-based
[6] = HEp-2 cell cytotoxicity, dose response, cytotoxicity control for RSV inhibitor project, HTS (AID 2410); type: functional; settings: human respiratory syncytial virus
[7] = molecular target: T2, Rac GTPase-activating protein 1 (Homo sapiens, UniProt Q9H0H5); assay: MgcRacGAP GTPase-activating activity inhibitors, confirmation, biochemical, ADP Hunter fluorescence, primary and confirmatory (AID 624330); type: functional
T2 sequence (Q9H0H5 whole entry): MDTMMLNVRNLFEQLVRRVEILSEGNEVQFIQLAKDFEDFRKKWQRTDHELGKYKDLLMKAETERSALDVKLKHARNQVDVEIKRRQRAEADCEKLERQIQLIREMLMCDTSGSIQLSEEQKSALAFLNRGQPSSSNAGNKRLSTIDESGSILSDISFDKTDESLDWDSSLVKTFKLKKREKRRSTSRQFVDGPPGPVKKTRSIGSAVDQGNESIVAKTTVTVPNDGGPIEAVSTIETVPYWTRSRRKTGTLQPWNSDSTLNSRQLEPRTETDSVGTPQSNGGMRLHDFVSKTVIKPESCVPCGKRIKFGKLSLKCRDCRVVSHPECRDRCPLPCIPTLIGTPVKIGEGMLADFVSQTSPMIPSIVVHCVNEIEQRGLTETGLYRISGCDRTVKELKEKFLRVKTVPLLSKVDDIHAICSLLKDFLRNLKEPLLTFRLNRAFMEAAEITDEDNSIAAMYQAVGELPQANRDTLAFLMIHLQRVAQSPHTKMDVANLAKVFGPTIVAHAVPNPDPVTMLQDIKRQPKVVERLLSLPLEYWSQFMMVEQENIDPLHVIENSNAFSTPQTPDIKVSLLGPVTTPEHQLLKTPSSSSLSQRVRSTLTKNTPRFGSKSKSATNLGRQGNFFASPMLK

Large T antigen = Large T antigen (Simian virus 40, UniProt P03070); type: functional, Betapolyomavirus macacae;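 also: Confirmatory-stage PubChem screen for compounds that inhibit SV40 T antigen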
[8] = Luminescence Cell-Based Dose Confirmation HTS to Identify Activators of 5'UTR Stem-Loop Driven Alpha-Synuclein mRNA Translation in H4 Neuroglioblastoma Cells. [Related pubchem assays: 1829 (Project Summary), 1814 (Primary HTS)]; type: functional
[9] = Luminescence Cell-Based Dose Response HTS to Identify Activators of Luciferase Translation or Activity in H4 […] Cells. [Related pubchem assays: 1829 (Project Summary), 1814 (Primary HTS)]; type: functional
H4 = assay: Luminescence Cell-Based Dose Response HTS to Identify Activators of 5'UTR Stem-Loop Driven Prion Protein mRNA Translation in H4 Neuroglioblastoma Cells. [Related pubchem assays: 1829 (Project Summary), 1814 (Primary HTS)]; type: functional; settings: Homo sapiens
[10] = molecular target: FAD-linked sulfhydryl oxidase ALR (Homo sapiens, UniProt P55789); assay: inhibitors of human ALR sulfhydryl oxidase, dose response, biochemical, H2O2 detection, luminescence, cherry-pick (AID 493248)
[11] = Shn3 3'UTR reporter inhibitors, dose response, cell-based, Clone20 osteoblasts, firefly luciferase, cherry-picked (AID 624132); type: functional;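 also: firefly luciferase luminescence from reporter carrying the Shn3 3'UTR in osteoblasts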
Cytochrome P450 1A2 = molecular target: T3, Cytochrome P450 1A2 (Homo sapiens, UniProt P05177);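 also: PubChem cytochrome P450 panel assay, CYP1A2 panel member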
T3 sequence (P05177 whole entry): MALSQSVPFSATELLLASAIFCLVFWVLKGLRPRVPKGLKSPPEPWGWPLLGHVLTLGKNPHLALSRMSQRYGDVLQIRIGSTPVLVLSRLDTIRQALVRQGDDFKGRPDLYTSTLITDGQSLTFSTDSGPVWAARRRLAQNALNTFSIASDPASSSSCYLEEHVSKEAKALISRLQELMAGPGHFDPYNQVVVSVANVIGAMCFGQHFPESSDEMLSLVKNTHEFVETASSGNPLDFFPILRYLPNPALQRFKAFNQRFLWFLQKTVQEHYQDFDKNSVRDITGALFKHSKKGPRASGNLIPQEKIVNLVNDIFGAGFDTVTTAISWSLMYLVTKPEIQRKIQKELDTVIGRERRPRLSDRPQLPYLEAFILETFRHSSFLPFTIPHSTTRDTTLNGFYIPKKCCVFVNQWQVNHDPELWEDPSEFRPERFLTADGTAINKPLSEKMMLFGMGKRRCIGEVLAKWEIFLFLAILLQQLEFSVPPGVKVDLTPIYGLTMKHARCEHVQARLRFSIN

Protein RecA = molecular target: T4, Protein RecA (Mycobacterium tuberculosis, UniProt P9WHJ3); assay: Fluorescence Cell-Free Homogeneous Dose Retest to Identify Inhibitors of RecA-Intein Splicing Activity. [Related pubchem assays (depositor defined):AID2097, AID2223, AID489010, AID492950]; type: functional
T4 sequence (P9WHJ3 whole entry): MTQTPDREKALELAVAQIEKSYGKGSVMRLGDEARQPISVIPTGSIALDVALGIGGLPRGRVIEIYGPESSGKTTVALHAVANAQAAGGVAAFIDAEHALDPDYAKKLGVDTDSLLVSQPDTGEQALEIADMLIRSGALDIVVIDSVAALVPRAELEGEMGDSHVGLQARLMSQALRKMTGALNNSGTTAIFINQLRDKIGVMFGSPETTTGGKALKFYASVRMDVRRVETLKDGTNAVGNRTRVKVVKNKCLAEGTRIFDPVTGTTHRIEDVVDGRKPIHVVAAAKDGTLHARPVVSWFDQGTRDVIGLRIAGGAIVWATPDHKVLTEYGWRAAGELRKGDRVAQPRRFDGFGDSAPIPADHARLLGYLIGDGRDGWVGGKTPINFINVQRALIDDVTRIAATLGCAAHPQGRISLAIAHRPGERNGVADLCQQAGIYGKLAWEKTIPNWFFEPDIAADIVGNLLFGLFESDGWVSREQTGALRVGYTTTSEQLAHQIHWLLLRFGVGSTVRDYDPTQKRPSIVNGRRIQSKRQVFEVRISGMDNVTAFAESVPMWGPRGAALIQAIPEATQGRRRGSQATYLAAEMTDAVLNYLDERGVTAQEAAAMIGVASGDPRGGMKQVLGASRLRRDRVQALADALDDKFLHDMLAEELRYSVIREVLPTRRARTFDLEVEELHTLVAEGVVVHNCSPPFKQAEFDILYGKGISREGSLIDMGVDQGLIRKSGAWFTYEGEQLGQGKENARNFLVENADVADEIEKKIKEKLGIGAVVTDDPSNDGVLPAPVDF

[12] = molecular target: T5, Replicative DNA helicase DnaB (Mycobacterium tuberculosis, UniProt P9WMR3); assay: DnaB intein splicing inhibitors, dose response, biochemical, cell-free fluorescence (AID 449749); type: functional
T5 sequence (P9WMR3 whole entry): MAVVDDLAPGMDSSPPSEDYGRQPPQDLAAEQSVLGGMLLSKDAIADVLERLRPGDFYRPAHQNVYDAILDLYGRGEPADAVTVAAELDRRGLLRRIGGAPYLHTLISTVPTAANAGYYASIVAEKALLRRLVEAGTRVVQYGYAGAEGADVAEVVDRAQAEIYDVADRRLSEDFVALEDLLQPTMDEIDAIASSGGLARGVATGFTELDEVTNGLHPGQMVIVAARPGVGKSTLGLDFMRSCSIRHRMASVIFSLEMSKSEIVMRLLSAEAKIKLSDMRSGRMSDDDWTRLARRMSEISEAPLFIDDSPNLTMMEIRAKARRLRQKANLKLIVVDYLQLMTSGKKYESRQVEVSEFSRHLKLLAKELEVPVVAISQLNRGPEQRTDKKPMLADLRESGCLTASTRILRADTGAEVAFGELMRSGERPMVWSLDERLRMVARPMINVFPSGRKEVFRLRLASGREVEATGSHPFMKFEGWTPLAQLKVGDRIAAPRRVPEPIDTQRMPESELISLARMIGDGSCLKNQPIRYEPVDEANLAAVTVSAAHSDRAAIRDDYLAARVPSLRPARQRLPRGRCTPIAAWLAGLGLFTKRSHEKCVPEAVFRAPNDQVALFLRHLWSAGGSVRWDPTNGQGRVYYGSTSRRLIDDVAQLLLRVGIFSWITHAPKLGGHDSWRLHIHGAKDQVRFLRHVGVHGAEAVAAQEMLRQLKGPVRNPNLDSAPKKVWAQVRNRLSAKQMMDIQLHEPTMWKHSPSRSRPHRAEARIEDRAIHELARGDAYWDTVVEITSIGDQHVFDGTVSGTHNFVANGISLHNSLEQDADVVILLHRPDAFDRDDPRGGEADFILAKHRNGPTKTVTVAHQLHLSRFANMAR

Sequence of Large T antigen (P03070 whole entry): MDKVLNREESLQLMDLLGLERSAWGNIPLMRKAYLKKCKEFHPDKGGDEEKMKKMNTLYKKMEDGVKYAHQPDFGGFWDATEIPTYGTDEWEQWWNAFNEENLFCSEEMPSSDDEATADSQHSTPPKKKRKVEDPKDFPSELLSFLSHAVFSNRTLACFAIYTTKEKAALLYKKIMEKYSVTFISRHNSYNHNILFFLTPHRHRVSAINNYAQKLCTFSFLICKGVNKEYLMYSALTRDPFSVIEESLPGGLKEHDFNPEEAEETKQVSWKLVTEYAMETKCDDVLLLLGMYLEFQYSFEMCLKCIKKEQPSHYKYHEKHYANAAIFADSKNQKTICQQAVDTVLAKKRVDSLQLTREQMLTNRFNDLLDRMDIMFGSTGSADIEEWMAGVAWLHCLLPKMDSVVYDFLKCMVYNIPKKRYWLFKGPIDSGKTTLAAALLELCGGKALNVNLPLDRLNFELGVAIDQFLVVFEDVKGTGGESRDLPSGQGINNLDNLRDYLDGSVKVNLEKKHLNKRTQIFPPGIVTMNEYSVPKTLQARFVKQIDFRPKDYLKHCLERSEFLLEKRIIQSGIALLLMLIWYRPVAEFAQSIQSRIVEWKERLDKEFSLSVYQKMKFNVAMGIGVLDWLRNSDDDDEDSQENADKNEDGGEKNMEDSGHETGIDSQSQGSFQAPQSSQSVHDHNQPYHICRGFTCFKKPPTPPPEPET
Sequence of FAD-linked sulfhydryl oxidase ALR (P55789 whole entry): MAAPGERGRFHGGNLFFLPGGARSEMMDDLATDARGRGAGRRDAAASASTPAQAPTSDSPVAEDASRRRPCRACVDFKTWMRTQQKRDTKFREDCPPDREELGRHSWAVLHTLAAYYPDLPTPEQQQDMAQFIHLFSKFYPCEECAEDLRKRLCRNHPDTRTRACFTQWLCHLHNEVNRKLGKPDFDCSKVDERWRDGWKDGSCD

COc1ccccc1C(=O)n1nc(-c2ccco2)nc1N
IC50 (Prothrombin): 6.93 µM (active)

CCc1nc2ccccc2c(C(=O)OCC(=O)C(C)(C)C)c1C
IC50 (Prothrombin): > 50 µM (not active)

O=c1c2c(-c3ccccc3)csc2ncn1/N=C/c1ccc(O)c([N+](=O)[O-])c1
IC50 [1]: 9.57 µM (not active)

O=C(N(Cc1ccccc1)c1ccccn1)C12CC3CC(CC(C3)C1)C2
AC50 [2]: 6.03 µM (active)
AC50 [3]: 2.99 µM (active)
AC50 [4]: 1.62 µM (active)
AC50 [5]: 2.19 µM (active)

CC(C)c1ccc(NC(S)=Nc2ccc3c[nH]nc3c2)cc1
CC50 [6]: 37.9 µM (active)
IC50 (Prothrombin): 2.49 µM (active)

C=CCn1c(SCc2c(C)noc2C)nc2cc(C(=O)O)ccc2c1=O
IC50 (Prothrombin): > 50 µM (not active)

COc1ccc(/N=C/c2c(O)cc(C)oc2=O)cc1
IC50 [7]: 85.2 µM (active)
IC50 (Large T antigen): 7.84 µM (active)

O=C(c1ccco1)N1CCCC(Nc2ccc3c(c2)OCCO3)C1 (configuration not stated)
IC50 (Large T antigen): 29.3 µM (active)
EC50 [8]: 8.81 µM (active)
EC50 [9]: 9.98 µM (active)
EC50 (H4): 37.7 µM (active)

COc1ccc([C@H]2/C=C\CN(C(=O)C3CC3)[C@@H](C)C(=O)N2Cc2ccc(F)cc2)cc1
AC50 [2]: 4.99 µM (active)
AC50 [3]: 7.85 µM (active)
AC50 [4]: 4.42 µM (active)
AC50 [5]: 0.488 µM (active)

COc1cc(/C=N/n2nnnc2N)ccc1O
IC50 [7]: 16.9 µM (active)
IC50 (Large T antigen): 4.83 µM (active)
AC50 [10]: 1.2 µM (active)

COc1cccc(C(=O)N2c3ccccc3Sc3ccccc32)c1
IC50 [1]: 6.88 µM (not active)

CCOc1ccc2nc(SC3CC(=O)N(c4ccc(C)cc4)C3=O)sc2c1 (configuration not stated)
AC50 [11]: 15.6 µM (active)

Cn1c(N)c(C(=O)COC(=O)CCC2CCCC2)c(=O)n(C)c1=O
IC50 [1]: 15.5 µM (not active)

COc1ccc2cc(C(=O)N3CCCCCC3)sc(=O)c2c1OC
IC50 [1]: 11.1 µM (active)

CCc1ccc(C2CC(=O)N3CN(c4ccccc4)CSC3=C2C#N)cc1 (configuration not stated)
IC50 (Large T antigen): 70.1 µM (active)

Cn1c(=O)n(-c2cccc(Cl)c2)c(=O)c2c3c(sc21)COC(C)(C)C3
AC50 [2]: 1.37 µM (active)
AC50 [3]: 6.71 µM (active)
AC50 [4]: 3.65 µM (active)
AC50 (Cytochrome P450 1A2): 14.1 µM (inconclusive)
AC50 [5]: 3.36 µM (active)

CCC(CC)NC(=O)COC(=O)c1ccc(OCC(=O)Nc2ccccc2OC)c(OC)c1
IC50 [1]: 18.5 µM (not active)

Nc1nc(-c2ccco2)nn1C(=O)c1ccc(Cl)cc1
EC50 (Protein RecA): 55.4 µM (active)
IC50 (Prothrombin): 1.46 µM (active)
AC50 [12]: 14 µM (active)

Cc1cc(Oc2ccc(C#N)cc2)nc(NCc2ccccc2)n1
AC50 [2]: 9.81 µM (active)
AC50 [3]: > 70 µM (inactive)
AC50 [5]: 5.62 µM (active)

CC(C)c1onc(C(=O)Nc2cccc(Cl)c2)c1[N+](=O)[O-]
IC50 [1]: 2.32 µM (not active)

Cc1cc(C)cc(OCC(=O)NNC(=O)CN2C(=O)c3ccccc3C2=O)c1
IC50 (Prothrombin): > 50 µM (not active)
